We go through three compounds from paper PMC6201685 (Biochemistry, 2016).

In data set [1] the target is T1, Rv2671 (Mycobacterium tuberculosis, UniProt P71968). It is filed as biochemical.
In data set [2] the target is T1, Rv2671. The experiment in a line: X-ray cocrystal structure. It is filed as biochemical.
In data set [3] the test system is Nc1nc2c(c(=O)[nH]1)N=C(CNc1ccc(C(=O)N[C@@H](CCC(=O)O)C(=O)O)cc1)CN2. The experiment in a line: purified protein.
Data set [4] concerns Nc1nc2c(c(=O)[nH]1)N=C(CNc1ccc(C(=O)O)cc1)CN2. The experiment in a line: purified protein.

In the case of `NC(=O)C1=CN([C@@H]2O[C@H](COP(=O)(O)OP(=O)(O)OC[C@H]3O[C@@H](n4cnc5c(N)ncnc54)[C@H](OP(=O)(O)O)[C@@H]3O)[C@@H](O)[C@H]2O)C=CC1` [NADPH], the “cosubstrate in DHF reduction assay with purified enzyme (340 nm, HPLC)” value on Rv2671 [1] was “Tetrahydrofolate, the product of the reaction, was observed by HPLC spectrometry after the addition of DHF and NADPH to Rv2671”.
Usually IC50 stands for the concentration at which inhibition is half-maximal. Higher therefore signals lower potency. For `COc1cc(NCc2ccc3nc(N)nc(N)c3c2C)cc(OC)c1OC` [TMQ, trimetrexate], half-maximal inhibition on Rv2671 [2] (IC50) was put at 280 ± 20 nM.
One may read the Km as the substrate concentration at which the rate is half of its maximum. Turning to “Rv2671 (Mycobacterium tuberculosis H37Rv)”, the Km in data set [3] was 136 ± 32 µM; in data set [4], 180.2 ± 25.5 µM.
